Reference: patent US20080305102A1, “Therapeutic Agent for Cancer Comprising Substance Capable of Inhibiting Expression or Function of Synoviolin as Active Ingredient and Screening Method for the Therapeutic Agent for Cancer” (priority 2005, published 2008)

Experiments:
[1] = system: phosphorylation of Ser15 of p53 (ATM and ATR); test: p53 Ser15 phosphorylation in RKO cells treated with synoviolin siRNA, with or without caffeine (Western blotting); type: cell-based, human; settings: caffeine 10 mM, both 12 h and 24 h after the addition, FIG. 5
Protocol: RKO cells (human colon cancer cells), which had been confirmed to express wild-type p53, were seeded on a 60 mm plate at 1.0×10^5 cells/plate/2 mL), and were transfected with siRNA oligonucleotides against GFP and synoviolin, using Oligofectamine. After 72 h, caffeine (10 mM), an inhibitor of ATM (ataxia-telangiectasia mutated) and ATR (an ATM and Rad3-related), which are important in the phosphorylation of […], was added. Then, Western blotting was performed using Phospho-p53 ([…]), an antibody to the phosphorylated […]-p53.

[2] = system: rheumatoid arthritis synovial cells (RASCs); test: suppression of RASC proliferation (MTT); type: cell-based; settings: Synovial cell, after 72 h of culture, FIGS. 23 and 24, read-out: IC50, RASC cell survival
Protocol: The low molecular weight compounds termed No. 32 (Compound X) and No. 38 (Compound Y) were used as specimens. HFLS-RA medium (Cell Applications Inc.; Code CA40405) was used for RASC. RASCs were seeded in a 96-well microtiter plate at 1,000 cells/well, and cultured for 24 h in DMEM containing 10% fetal bovine serum (Kohjin Bio). Then, twofold serial dilutions of the specimens, beginning from a final concentration of 50 μM, were added to the cells. After 1, 24, and 48 h, 3-(4,5-dimethylthiazol-2-yl)-2,5-diphenyltetrazoliumbromide (MTT) was added to a final concentration of 0.5 mg/mL. After 2 h, the medium was aspirated, and the remaining formazan was dissolved with 50 μL of dimethyl sulfoxide. Then, absorbances at […] were measured. The absorbances of the group treated with the specimens were used to calculate cell survival rates, with 0% representing the absorbance of the group without cells or specimen, and 100% representing the absorbance of the group without specimen.

RKO cells = test: cytotoxicity / cell survival rate in RKO cells (WST-8); type: cell-based, human; settings: cultured 24-72 h with compound, FIG. 18
Protocol: RKO cells (a human colon carcinoma cell line; ATCC: CRL-2577) were seeded in Eagle's Minimum Essential Medium containing 10% fetal bovine serum in a 96-well microtiter plate (Falcon; non-coated) at 1,000 cells/100 μL/well, and cultured for 24 h. Compounds X and Y were dissolved in Eagle's Minimum Essential Medium containing 10% fetal bovine serum, and 10 μL amounts were added to wells. The cells were then cultured for 24-72 h.
After culture, WST-8 (2-(2-methoxy-4-nitrophenyl)-3-(4-nitrophenyl)-5-(2,4-disulfophenyl)-2H-tetrazolium, monosodium salt) was added to each well. After 2-4 h, absorbances at 450 nm were measured (reference wavelength: […]) and cell survival rates were calculated (FIG. 18).
The calculation method was based on the following formula: […]

[3] = system: T1, synoviolin (MBP-Syno ΔTM-His), substrate GST-p53 (Homo sapiens); test: in vitro ubiquitination reaction of GST-p53 by MBP-Syno ΔTM-His (Western blot, anti-p53 FL393); type: biochemical; settings: 75, 150, 300 or 600 μM compound; FIG. 17B
T1 construct: GST-SynoΔTM 236-617:pGEX-5-1/S ΔTM; His tag (C); made in house; host or cells: E. coli
T1 sequence (Q86TM6 236-617 E545G): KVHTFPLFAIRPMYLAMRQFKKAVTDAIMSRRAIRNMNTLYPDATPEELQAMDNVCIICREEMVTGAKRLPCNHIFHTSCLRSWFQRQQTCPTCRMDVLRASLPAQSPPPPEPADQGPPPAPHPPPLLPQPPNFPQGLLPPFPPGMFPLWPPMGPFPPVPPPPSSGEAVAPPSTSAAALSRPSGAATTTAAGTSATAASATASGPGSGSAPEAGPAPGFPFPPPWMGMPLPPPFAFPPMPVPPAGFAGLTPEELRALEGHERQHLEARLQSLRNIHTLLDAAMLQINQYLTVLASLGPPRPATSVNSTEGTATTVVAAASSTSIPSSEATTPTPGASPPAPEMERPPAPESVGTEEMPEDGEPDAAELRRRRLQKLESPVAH
Protocol: E. coli (BL21) hosting pGEX/p53 was cultured in 500 mL of LB medium. After induction with IPTG (1 mM at 30° C. for 6 h), an extract was prepared from the culture solution, using buffer containing 0.5% NP-40. From the E. coli extract, GST-p53 was purified using a GSH-Sepharose resin in the presence of 0.1% NP-40. […] After the reaction, proteins were separated by 7.5% SDS-PAGE, and transferred onto a PVDF membrane, prior to detection of the p53 protein on the membrane using anti-p53 antibodies (FL393 or DO-1). Reaction and detection were performed with variations in the amount of GST-p53 added.
In the presence of GST-p53, varying concentrations (75 μM, 150 μM, 300 μM, or 600 μM) of compounds X and Y were added to the in vitro ubiquitination reaction system using MBP-Syno ΔTM-His. After reaction, proteins were separated by 7.5% SDS-PAGE, transferred onto a PVDF membrane, and then detected using the anti-p53 antibody FL393 (Santa Cruz Biotechnology).

p53 protein = p53 protein expression level in RKO cells (Western blotting); type: cell-based, human; settings: 5, 10 or 20 μM, 24 h, FIG. 19
Protocol: Fractions of homogenized cells were prepared from various cells using a cell homogenizing solution (50 mM Tris-HCl [pH 8.0], 150 mM NaCl, 1% NP40, 1 mM PMSF, 0.1% sodium dodecyl sulfate (SDS), 2 μg/mL leupeptin, 2 μg/mL aprotinin, and 2 μg/mL pepstatin). Then, fractions of homogenized cells were separated by SDS-PAGE. After SDS-PAGE, the cell-derived proteins were transferred onto a nitrocellulose (NC) membrane by an electroblotting method. This NC membrane was blocked with Tris buffered saline (TBS) with 5% skim milk at room temperature for 1 h, and then immunoreacted with anti-p53 antibody C-terminal aa; 195-393 or FL393, both of which were diluted in TBS with 5% skim milk, at room temperature for 1 h. The NC membrane after reaction was washed with 0.1% Tween 20/TBS, and then immunoreacted with horse radish peroxidase (HRP)-labeled anti-rabbit IgG antibody as secondary antibody, at room temperature for 1 h. The membrane was washed with 0.1% Tween 20/TBS, and HRP activity was sought to detect the target antigen. An ECL kit (Amersham) was used to detect HRP activity […]).
RKO cells were treated with compound Y, and changes in p53 protein expression level were examined by Western blotting. Specifically, RKO cells were seeded in 10 cm plates at 5.0×10^5 cells/plate, and cultured for 24 h. […]

RA synovial cells = test: cell cycle of RA synovial cells after synoviolin siRNA (flow cytometer); type: cell-based; settings: 25 nM siRNA, FIG. 7
Protocol: RA synovial cells were seeded on a 10 cm dish at 9.0×10^4 cells/dish, and were transfected with synoviolin siRNA (final concentration 25 nM). Then, the cell cycle was monitored by flow cytometer.

synoviolin and p53 mRNA = test: mRNA levels of synoviolin and p53 in RASCs under synoviolin RNAi (TaqMan); type: cell-based; settings: 25 nM siRNA, cultured 4 d, 18S rRNA as control, FIG. 14
Protocol: RASCs were seeded on a 10 cm dish at 30,000 cells/dish, and were transfected with 25 nM of siRNA (No. 589) according to a routine method. The cells were then cultured for 4 d. During this period, cells were collected overtime to obtain mRNA. Random primers were used, with 1 μg of mRNA as a template, to perform reverse transcription reactions, and cDNAs were obtained. The obtained cDNAs were quantified using the ABI TaqMan Gene expression assay (GEX). The mRNA levels were calculated using 18S rRNA as control.
The GEX reagent target assay no. (Assay ID) is Hs00381211_m1 for synoviolin and Hs00153340_m1 for p53.

Row | Molecule | IC50 [2] [µM] | cell proliferation / cell survival rate of RKO cells (RKO cells) | inhibition of the GST-p53 ubiquitination reaction [3] | further results
1 | Cn1c(=O)c2c(ncn2C)n(C)c1=O [caffeine] |  |  |  | inhibition of the siRNA-enhanced phosphorylation of p53 Ser15 [1]: completely inhibited
2 | COc1ccc(/C=N/Nc2nc(Nc3ccc([N+](=O)[O-])cc3)nc(N3CCN(C)CC3)n2)cc1OC [compound X] | 20 | cell proliferation was suppressed | inhibited the GST-p53 ubiquitination reaction in a concentration-dependent manner | 
3 | CN(C)c1nc(N/N=C/c2cc([N+](=O)[O-])ccc2O)nc(Nc2ccc(F)cc2)n1 [compound Y] | ~6 | cell proliferation was suppressed | inhibited the GST-p53 ubiquitination reaction in a concentration-dependent manner | p53 protein expression level (p53 protein): increased
4 | h589: double-stranded RNA in which sense strand SEQ ID NO: 18 and antisense strand SEQ ID NO: 19 are annealed; synoviolin siRNA (sense GGUGUUCUUUGGGCAACUGTT; antisense CAGUUGCCCAAAGAACACCTT; chemistry not given here) |  |  |  | cell cycle (RA synovial cells): delay in the cell cycle at the G0/G1 phase; level of p53 mRNA (synoviolin and p53 mRNA): unchanged; level of synoviolin mRNA (synoviolin and p53 mRNA): decreased
